Several values for one entry are separate records, joined by “and”; a condition that tells them apart may be missing. Equal values may be shown once. Read-outs that look alike come from different tables or passages of the source.
Tests used:
[1] = system: NR-53516 SARS-Related Coronavirus 2 Isolate New York—PV09158/2020; assay type: cell-based, SARS-CoV-2; details: Vero-76 cells, after 4 days
[2] = oral Imatinib dose of 400 mg/day; cited from earlier work
[3] = system: Vero 76 African green monkey kidney cells; details: Vero 76 cells, any concentration tested up to 100 μM
[4] = system: USA-WA1/2020 (SARS-CoV-2) virus; assay type: in vivo, K18-hACE2 mice; details: for Lung (log10 TCID50/mL), group AVG: day 6, 7 mice per group, Mebendazole 50 mg/kg po; for Lung (log10 TCID50/mL), group AVG / Lung (log10 TCID50/mL), individual animals: Imatinib 100 mg/kg, Niclosamide 200 mg/kg, alone or combined; for Lung (log10 TCID50/mL), individual animals: day 6, Mebendazole 50 mg/kg po once daily
[5] = system: USA-WA1/2020 (SARS-CoV-2) virus; assay type: in vivo, K18-hACE2 mice; details: for Viral content by lung RT-qPCR, Log10, group AVG / Viral content by lung RT-qPCR, Mean Result, group AVG: day 6, 7 mice per group; for Viral content by lung RT-qPCR, Log10, group AVG / Viral content by lung RT-qPCR, Mean Result, group AVG / Viral content by lung RT-qPCR, Log10 (individual animals) / Viral content by lung RT-qPCR, Mean Result (individual animals): Imatinib 100 mg/kg, Niclosamide 200 mg/kg, alone or combined; for Viral content by lung RT-qPCR, Log10 (individual animals) / Viral content by lung RT-qPCR, Mean Result (individual animals): day 6, oral gavage once daily, Mebendazole 50 mg/kg
Calu-3 = Calu-3 cells, any concentration tested up to 100 μM
[6] = target: Mast/stem cell growth factor receptor Kit (Homo sapiens, UniProt P10721); details: cited from earlier work
Chain of Mast/stem cell growth factor receptor Kit (P10721 26-976, species assumed): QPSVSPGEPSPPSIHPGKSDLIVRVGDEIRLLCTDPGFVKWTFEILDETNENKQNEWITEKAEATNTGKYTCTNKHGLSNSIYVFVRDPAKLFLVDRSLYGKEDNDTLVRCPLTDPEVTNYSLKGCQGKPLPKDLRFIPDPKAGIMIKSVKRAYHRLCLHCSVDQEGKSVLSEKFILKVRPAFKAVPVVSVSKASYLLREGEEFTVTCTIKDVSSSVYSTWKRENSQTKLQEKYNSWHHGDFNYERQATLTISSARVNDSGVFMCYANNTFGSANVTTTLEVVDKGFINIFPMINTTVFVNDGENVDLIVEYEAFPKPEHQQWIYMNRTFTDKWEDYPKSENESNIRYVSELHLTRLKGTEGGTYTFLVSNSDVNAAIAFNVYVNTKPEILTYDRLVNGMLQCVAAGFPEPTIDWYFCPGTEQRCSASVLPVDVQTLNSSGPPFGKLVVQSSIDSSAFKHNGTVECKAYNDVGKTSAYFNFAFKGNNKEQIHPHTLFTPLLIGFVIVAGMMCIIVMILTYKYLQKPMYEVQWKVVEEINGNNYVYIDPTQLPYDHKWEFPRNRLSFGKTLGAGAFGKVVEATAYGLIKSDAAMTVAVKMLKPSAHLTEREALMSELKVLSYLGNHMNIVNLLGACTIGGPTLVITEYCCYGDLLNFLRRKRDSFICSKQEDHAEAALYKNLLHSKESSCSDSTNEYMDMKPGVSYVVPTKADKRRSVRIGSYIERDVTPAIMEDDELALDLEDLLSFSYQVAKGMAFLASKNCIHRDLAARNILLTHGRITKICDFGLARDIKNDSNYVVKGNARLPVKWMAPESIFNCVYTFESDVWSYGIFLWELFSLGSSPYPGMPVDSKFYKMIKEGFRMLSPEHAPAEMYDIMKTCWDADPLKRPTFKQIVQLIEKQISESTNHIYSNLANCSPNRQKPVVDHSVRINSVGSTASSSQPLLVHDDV

[7] = cited from earlier work
SARS-CoV-2 = details: human hepatoma cell line (Huh 7.5 cells) infected with SARS-CoV-2; cited from earlier work
[8] = system: SARS-CoV-2 (USA-WA1/2020 Isolate); assay: microbe, parasite or virus in culture; assay type: cell-based; details: Calu-3 cells
human coronavirus NL63 = details: microtubule inhibitor, compared with actin inhibitors; cited from earlier work
[9] = day 6, Mebendazole 50 mg/kg po, alone or with Imatinib 100 mg/kg po

For `CNC(=O)c1ccccc1Sc1ccc2c(/C=C/c3ccccn3)n[nH]c2c1` [Axitinib], the “reduction in viral load (Average Virus TCID50/ml*10^6)” value (“reduction in viral load” for short) ([1]; 500 nano molar) was 66.4%.
For `COc1cc(Nc2c(C#N)cnc3cc(OCCCN4CCN(C)CC4)c(OC)cc23)c(Cl)cc1Cl` [Bosutinib], the “reduction in viral load” value ([1]; 50 nano molar) was 47.3%.
For `COc1cc2ncnc(Nc3ccc(F)c(Cl)c3)c2cc1OCCCN1CCOCC1` [Gefitinib], the “reduction in viral load” value ([1]; 50 nano molar) was 53.54%.
For `Cc1ccc(NC(=O)c2ccc(CN3CCN(C)CC3)cc2)cc1Nc1nccc(-c2cccnc2)n1` [Imatinib], the “expected trough plasma concentration” value [2] is given as 1.7 µM, the “cytotoxicity (MTT)” value [3] is given as “no cytotoxicity was observed” and the “reduction in viral load” value ([1]; 10 micro molar) is given as 29.6%. The “animals positively affected (lung TCID50)” value ([4]; day 6, 7 animals per group) was “a single animal”, the “Lung (log10 TCID50/mL), group AVG” value [4] was 7.4 log10 TCID50/mL and the “Lung (log10 TCID50/mL), individual animals” value [4] was 8.3 log10 TCID50/mL and 7.5 log10 TCID50/mL and 5.3 log10 TCID50/mL and 7.6 log10 TCID50/mL and 8.5 log10 TCID50/mL and 8.0 log10 TCID50/mL and 6.5 log10 TCID50/mL. For the same molecule, the “Viral content by lung RT-qPCR, Log10, group AVG” value (from here on “Viral content … Log10, group AVG”) ([5]; Mebendazole 50 mg/kg po) was 7.8, the “Viral content by lung RT-qPCR, Mean Result, group AVG” value ([5]; Mebendazole 50 mg/kg po) was 9.54E+07 and the “Viral content by lung RT-qPCR, Log10 (individual animals)” value [5] was 7.6 and 7.7 and 7.9 (2×) and 8.0 and 7.3 and 8.5. The “Viral content by lung RT-qPCR, Mean Result (individual animals)” value [5] was 3.67E+07 and 5.37E+07 and 7.80E+07 and 9.13E+07 and 2.15E+07 and 7.53E+07 and 3.12E+08, the “cytotoxicity (MTT)” value (Calu-3) was “no cytotoxicity was observed” and the “known to target (value in brackets, measure not stated)” value [6] was 16 nM.
For `COC(=O)Nc1nc2ccc(C(=O)c3ccccc3)cc2[nH]1` [Mebendazole], the “share of a single oral dose that reaches systemic circulation” value ([7]; humans, extensive first-pass metabolism) is given as “less than 10%”, the elimination half-life ([7]; in vivo) is given as 3 to 6 h and the “higher exposure at steady-state” value ([7]; long-term oral administration) is given as roughly 3 fold. For the same molecule, the “share of an oral dose excreted in urine” value ([7]; oral dose) was less than 2%, the “antiviral activity compared to the Vero E6 cells” value (SARS-CoV-2) was “appeared to be lower” and the “Lung (log10 TCID50/mL), group AVG” value [4] was 5.8 log10 TCID50/mL. For the same molecule, the “Lung (log10 TCID50/mL), individual animals” value [4] was 6.0 log10 TCID50/mL and 5.3 log10 TCID50/mL (2×) and 4.8 log10 TCID50/mL and 5.5 log10 TCID50/mL and 7.3 log10 TCID50/mL and 6.5 log10 TCID50/mL, the “inhibition of SARS-CoV-2 (in words)” value ([8]; 2.3-5000 nM) was “Complete or near complete inhibition” and the EC50 ([8]; Severe acute respiratory syndrome coronavirus 2, 24 h pretreatment, read 48 h after inoculation, MOI 0.005, read-out: EC50, inhibition of SARS-CoV-2) was 0.102 µM. The “Viral content … Log10, group AVG” value ([5]; Mebendazole 50 mg/kg po) was 7.8, the “Viral content by lung RT-qPCR, Mean Result, group AVG” value ([5]; Mebendazole 50 mg/kg po) was 4.36E+07 and the “Viral content by lung RT-qPCR, Log10 (individual animals)” value [5] was 7.9 (2×) and 7.7 and 7.3 (2×) and 7.6 and 7.5. For the same molecule, the “Viral content by lung RT-qPCR, Mean Result (individual animals)” value [5] was 7.15E+07 and 4.97E+07 and 7.76E+07 and 1.90E+07 and 2.03E+07 and 3.73E+07 and 2.95E+07, the “Mean % Reduction of Lung Tissue RT-qPCR Titers vs. the Group Mean of Placebo Treated Mice” value [5, 9] was 44.2% and the “Percent Reduction of Lung Tissue RT-qPCR Titers (Individual Animals) vs. the Group Mean of Placebo Treated Mice” value [5, 9] was 8.45% and 36.36% and 0.64% and 75.67% and 74.01% and 52.24% and 62.23%.
In the case of `O=C(Nc1ccc([N+](=O)[O-])cc1Cl)c1cc(Cl)ccc1O` [Niclosamide], the “Lung (log10 TCID50/mL), group AVG” value [4] is reported as 6.1 log10 TCID50/mL, the “Lung (log10 TCID50/mL), individual animals” value [4] is reported as 6.3 log10 TCID50/mL and 5.5 log10 TCID50/mL (3×) and 8.5 log10 TCID50/mL and 6.8 log10 TCID50/mL and 4.3 log10 TCID50/mL and the “Viral content … Log10, group AVG” value ([5]; Mebendazole 50 mg/kg po) is reported as 7.7. For the same molecule, the “Viral content by lung RT-qPCR, Mean Result, group AVG” value ([5]; Mebendazole 50 mg/kg po) was 8.46E+07, the “Viral content by lung RT-qPCR, Log10 (individual animals)” value [5] was 7.6 and 6.7 and 7.5 (2×) and 8.0 and 8.5 and 7.9 and the “Viral content by lung RT-qPCR, Mean Result (individual animals)” value [5] was 4.28E+07 and 5.54E+06 and 3.04E+07 and 9.85E+07 and 3.08E+08 and 7.72E+07 and 2.97E+07.
For `COC(=O)Nc1nc2ccc(C(=O)c3cccs3)cc2[nH]1` [nocodazole], the “reduction of virus entry” value (human coronavirus NL63) is listed as “did not”.
